How the values were obtained:
OIR rats = assay: Retinal vascular leakage in OIR rats, intravitreal injection; type: in vivo, rat; settings: for retinal vascular leakage as % of contralateral vehicle-injected eyes: intravitreal 5 μl 0.8 mM at P14, measured P16; for reduction of retinal vascular leakage vs vehicle control: single intravitreal 1.0 μg/eye (5 μl 0.8 mM) at P14, measured P16
Source text: Induction of oxygen-induced retinopathy (OIR): Induction of OIR followed the procedure as described by Smith et al (Smith, et al. Invest. Opthalmol. Vis. Sci. 1994, 35: 101-111) with some modifications. Briefly, Newborn Brown Norway (BN) rats (Charles River Laboratories) at postnatal day 7 (P7) were exposed to hyperoxia (75% O2) for 5 days (P7-12) and then returned to normoxia (room air) to induce retinopathy.
(§2) Intravitreal injection of compounds: Thalidomide and the phenylphthalimide analogs Compounds 1, 2 and Compound 4 were dissolved in vehicle (BN rat serum) and sterilized by filtration. OIR and STZ-diabetic BN rats received an intravitreal injection of 0.5-2.0 μg/eye of (5 μl/eye, 0.1-0.4 mg/ml in BN rat serum) of thalidomide, Compounds 1, 2 or Compound 4 into the right eye and the equal volume of the BN rat serum into the left eye.
Measurement of vascular permeability: Vascular permeability was quantified by measuring leakage of FITC-albumin or Evans blue dye-albumin complex from the blood vessels into the retina as described (Xu, et al. Invest. Opthalmol. Vis. Sci. 2001, 42:789-794), with some modifications. Briefly, FITC-albumin was injected through the femoral vein and circulated for 2 h. The rats were then perfused via the left ventricle. The retinas were carefully dissected and homogenized. The concentrations of FITC-albumin were measured in a fluorometer and normalized by the total protein concentration in each retina and by plasma concentration of FITC-albumin.
To induce OIR, BN rats at postnatal day 7 (P7) were exposed to hyperoxia (75% O2) for 5 days (P7-P12) and then returned to normoxia. Normal control rats were kept in room air. At P14, the OIR BN rats received an intravitreal injection of 5 μl (0.8 mM in BN rat serum)/eye of thalidomide, Compound 1, Compound 2, or Compound 4 into the right eye and same volume of the BN rat serum into the left eye. Retinal vascular leakage was measured using FITC-labeled albumin as tracer. Normal non-OIR BN rats (n=6) served as baseline at P16.
To determine if the effect of Compound 4 on retinal vascular leakage was dose-dependent, the OIR rats at P14 received a single injection of Compound 4 with doses of 0.5, 0.75 and 1.0 μg/eye (5 μl of 0.10, 0.15 and 0.20 mg/ml).
In FIG. 7A, OIR rats received an intravitreal injection of 5 μl (0.8 mM in BN rat serum)/eye of thalidomide, Compounds 1, 2, or 4 in the right eye and the same volume of the vehicle in the left eye at P14. Vascular leakage was measured using the FITC-labeled albumin leakage method at P16 and expressed as fd/pr of protein in the retina (mean±SD, n=6). Each of the experimental group was compared with contralateral eye by Student's t test. Retinal vascular leakage in normal non-OIR rats at age of P16 were used as baseline at P16. In FIG. 7B, vascular leakage in the compound-injected eyes was expressed as a percentage of average vascular leakage in the vehicle-injected contralateral eyes. For the control, the average vascular leakage in vehicle-treated retinas was used as 100%. […] In FIGS. 7C and 7D, OIR rats received an intravitreal injection of Compound 4 or thalidomide with doses as indicated at P14. Permeability was measured at P16 and expressed as fd/pr of protein in the retina (mean±SD, n=6). Each of the experimental group was compared with the vehicle control by the paired Student's t test. “Normal” is represented as the permeability in normal rats at P16.

STZ-diabetic rats = assay: Retinal vascular leakage in STZ-diabetic rats, intravitreal injection; type: in vivo, rat; settings: for reduction of retinal vascular leakage vs vehicle control: single intravitreal 1.0 μg/eye (5 μl 0.8 mM), 48 h; for reduction of retinal vascular permeability: two days
Method: Induction of diabetes by streptozotocin (STZ): BN rats (8 weeks of age) were given a single intraperitoneal injection of fresh made streptozotocin (STZ) (Sigma, 50 mg/kg in 10 mM of citrate buffer, pH 4.5) following an overnight fasting. Control rats received an injection of citrate buffer alone. Blood glucose levels were checked at 24 hours following the last STZ injection and once a week thereafter, and only the animals with glucose levels higher than 350 mg/dl were considered diabetic. Rats with hyperglycemia for 2 weeks were used for these experiments.
as §2
Evans blue dye (Sigma) was dissolved in 0.9% saline (30 mg/ml), sonicated for 5 min and filtered through a 0.45-μm filter (Millipore). The rats were then anesthetized, and Evans blue (30 mg/kg) was injected over 10 s through the femoral vein using a glass capillary under microscopic inspection. Evans blue non-covalently binds to plasma albumin in the blood stream. Immediately after Evans blue infusion, the rats turned visibly blue, confirming their uptake and distribution of the dye. The rats were kept on a warm pad for 2 h to ensure the complete circulation of the dye. Then the chest cavity was opened, and the rats were perfused via the left ventricle with 1% paraformaldehyde in citrate buffer (pH 4.2) which was pre-warmed to 37° C. to prevent vasoconstriction. The perfusion lasted 10 min under the physiological pressure of 120 mmHg, in order to clear the dye from the vessel. Immediately after perfusion, the eyes were enucleated and the retinas were carefully dissected under an operating microscope. Evans blue dye was extracted by incubating each sample in 150 μl of formamide for 18 h at 70° C. The extract was centrifuged (Beckman) at 70,000 rpm (Rotor type: TLA 100.3) for 20 min at 4° C. Absorbance was measured using 100 μl of the supernatant at 620 nm by using Spectrophotometer DU800 (Beckman). The concentration of Evans blue in the extract was calculated from a standard curve of Evans blue in formamide and normalized by the total protein concentration in each sample. Results were expressed in mg of Evans blue per mg of total protein content.
Diabetes was induced by injection of STZ (50 mg/kg, i.v.) into adult BN rats after overnight fasting. Blood glucose levels were monitored at the second day after the injection and once a week thereafter. Rats with glucose levels above 350 mg/dl were considered as diabetic and used for the study. thalidomide, Compounds 1, 2 and 4 were separately injected into the vitreous space (5 μl, 0.8 mM in BN rat serum) of the right eye of STZ-diabetic rats 2 wks after the induction of diabetes. At 48 h after the injection, retinal vascular leakage was measured using the Evans blue-albumin leakage method.
To determine the dose-response relationship of the effect of Compound 4 and thalidomide, the STZ-diabetic rats received an intravitreal injection of Compound 4 and thalidomide with doses of 0.5, 0.75 and 1.0 μg/eye (5 μl/eye of 0.10, 0.15 and 0.20 mg/ml), respectively.

BRCEC = assay: MTT cell proliferation assay, BRCEC; type: cell-based, bovine; settings: Bos taurus, 72 h, treated 3 days, read-out: IC50, inhibition of proliferation of BRCEC
Source text: (§1) Cell culture: All cell culture media and supplements were purchased from Cellgro unless otherwise indicated. Human Umbilical Vein Endothelial Cells (HUVEC) were obtained from American Type Culture Collection and grown in the EBM-MV2 medium (Clonetics). Bovine Retinal Endothelial Cells (BREC) and pericytes were isolated according to a modified method as described previously (Wong, et al. Investig. Opthalmol. Vis. Sci. 1987, 28: 1767-1775). Twelve bovine eyes were obtained from a local slaughterhouse (Country Home Meats). The retinas were removed and washed four times in DMEM. Subsequently retinas were homogenized and centrifuged at 400×g for 10 min. The resultant pellet was resuspended in an isolation medium (DMEM with 100 IU/ml penicillin, 100 μg/ml streptomycin and 250 ng/ml amphotericin). Microvessels were trapped on an 85 μm nylon mesh (Locker Wire Weavers LTD) and transferred to a petri dish (Falcon) containing 10 ml of an enzyme cocktail which consisted of 600 μg/ml DNase I (Sigma), 165 μg/ml collagenase (Sigma) and 700 μg/ml Pronase E (EMD) and were incubated at 37° C. for 20 min. The resultant vessel fragments were trapped on a 53 μm nylon mesh (Locker Wire Weavers LTD), washed with the isolation medium and centrifuged at 400×g for 5 min. For selective culture of pericytes, the resultant pellet was resuspended in 10 ml of the pericyte growth medium and transferred into 75-cm^2 plastic tissue culture flasks (BD Biosciences). For selective culture of BRCECs, the resultant pellet was resuspended in 10 ml of the BRCEC growth medium and transferred into 75-cm^2 collagen-coated plastic tissue culture flasks (BD Biosciences). The BRCEC growth medium consisted of DMEM supplemented with 10% human serum, 1% glutamine, 1 mg/ml insulin, 550 μg/ml transferring, 670 ng/ml selenium, 100 IU/ml penicillin, 100 μg/ml streptomycin, 250 ng/ml amphotericin, 90 μg/ml heparin (Sigma) and 15 μg/ml endothelial cell growth supplement (Upstate). Cells were cultured at 37° C. and 5% CO2 with regular medium change every 3 days. Confluence cultures were passaged by detaching the cells with 0.25% trypsin and plated at a split 1:3. […] At passage 2, BRCECs and pericytes were stored in a liquid nitrogen tank for future use.
MTT assay: Cells were seeded at a density of 5×10^4 cells per well in 400 μl of growth medium in triplicate in 24-well plates (Nalge Nunc) or gelatin-coated 24-well plates. […] The absorbance of the formazen product was measured at a wavelength of 570 nm, with 750 nm as the (subtracted) reference wavelength.
Primary endothelial cells (HUVEC and BRCEC) and pericytes were treated with various concentrations of the compounds for 3 days. Viable cells were quantified using MTT assay and IC50 of each compound was calculated (mean±SD, n=3, FIG. 1). […]

HUVEC [1] = assay: MTT cell proliferation assay, HUVEC; type: cell-based; settings: Homo sapiens, 72 h, treated 3 days, read-out: IC50, inhibition of proliferation of HUVEC
Source text: as §1
MTT assay: Cells were seeded at a density of 5×10^4 cells per well in 400 μl of growth medium in triplicate in 24-well plates (Nalge Nunc) or gelatin-coated 24-well plates. Twenty-four hours after seeding, the growth medium was replaced by a medium containing 1% FBS, with or without different concentrations of thalidomide or phenylphthalimide analogs. After the cells were treated for 48-72 h, MTT was added to a final concentration of 0.5 mg of medium per ml and incubated for 4 h at 37° C. in 5% CO2. An equal volume of solubilizer buffer is then added, following the protocol recommended by the manufacturer (Roche Molecular Biochemicals), the cells will be incubated overnight at 37° C. in 5% CO2. The absorbance of the formazen product was measured at a wavelength of 570 nm, with 750 nm as the (subtracted) reference wavelength.
Primary endothelial cells (HUVEC and BRCEC) and pericytes were treated with various concentrations of the compounds for 3 days. Viable cells were quantified using MTT assay and IC50 of each compound was calculated (mean±SD, n=3, FIG. 1). The IC50 values represent the means and SE of 3 independent experiments.

HUVEC [2] = assay: Endothelial cell migration (invasion) assay; type: cell-based; settings: Homo sapiens, VEGF 4 ng/ml, invasion through Matrigel, read-out: IC50, inhibition of HUVEC migration
Method: Cells were allowed to invade for 22±1 hours. Cells were labeled post invasion with Calcein AM (4 μg/ml) and measured by detecting the fluorescence of cells that invaded through the BD Matrigel™ Matrix with an Applied Biosystems CytoFluor® 4000 plate reader at 485 nm excitation and 530 nm emission.
In this assay system, human endothelial cells are allowed to invade and are then labeled with fluorescent dye Calcein AM before quantification on a fluorometer.
In FIG. 2B, cells were seeded at 5×10^4/insert in EBM-2 containing 0.1% BSA in multi-well inserts. The assembled assays were allowed to proceed for 6 hours. The results are expressed as percent inhibition of migration as compared to control (no inhibitor). Data represents the average of 3 experiments, each run in triplicate. The bars represent mean±SD.

[3] = test system: CAM blood vessel formation induced by VEGF/bFGF; assay: Chicken chorioallantoic membrane (CAM) assay; type: in vivo; settings: 200 ng VEGF-165/bFGF, 48 hr
Method: Chicken chorioallantoic membrane (CAM) assay: The fertile Leghorn chicken eggs were incubated in a humidified environment at 37.5° C. for 10 days. […] Anti-angiogenic compounds were then added 8 hr after the VEGF/bFGF at saturation to the same microbial testing disk, and the embryos were incubated for an additional 40 h. CAMs were then removed, quickly fixed with 4% paraformaldehyde in PBS, placed onto Petri dishes, and digitized images taken at 7.5× using a Nikon dissecting microscope and Scion Imaging system. A 1×1-cm grid was then added to the digital CAM images and the average number of vessels within 5-7 grids counted as a measure of vascularity.
CAM assay was used for in vivo anti-angiogenic studies. The fertile leghorn chicken eggs were allowed to incubate in a humidified environment at 37.5° C. for 10 days. […] Anti-angiogenic compounds were then added 8 hours after the VEGF/bFGF at saturation to the same microbial testing disk and embryos allowed to incubate for an additional 40 hours. After 48 hr, CAMs were removed, quickly fixed with 4% paraformaldehyde in PBS, placed onto Petri dishes, and digitized images taken at 7.5× using a Nikon dissecting microscope and Scion Imaging system. A 1×1-cm grid was then added to the digital CAM images and the average number of vessels within 5-7 grids counted as a measure of vascularity.
FIG. 14 is a table comparing the effect of Compound 4 on blood vessel formation. […] Data represent mean±SD of 8-16 samples from 2-3 separate experiments.

Structure (SMILES)	retinal vascular leakage as % of contralateral vehicle-injected eyes (OIR rats) [%]	reduction of retinal vascular leakage vs vehicle control (OIR rats) [%]	reduction of retinal vascular leakage vs vehicle control (STZ-diabetic rats) [%]	IC50 (BRCEC) [µM]	IC50 (HUVEC [1]) [µM]	IC50 (HUVEC [2]) [µM]	ED50, dose reducing blood vessel number to 50% of VEGF/bFGF alone group [3] [μg/embryo]	reduction of retinal vascular leakage (OIR rats; dose of 0.5 μg/eye)	reduction of retinal vascular leakage (OIR rats; doses of 0.75 and 1.0 μg/eye)	reduction of retinal vascular permeability (STZ-diabetic rats; dose of 0.5 μg/eye)	reduction of retinal vascular permeability (STZ-diabetic rats; doses of 0.75 and 1.0 μg/eye)
CC(C)c1cccc(C(C)C)c1N1C(=O)c2ccc(N)cc2C1=O [Compound 4]	61	40	~100	1.83	2	< 1	6.5	–	–	–	–
O=C1CCC(N2C(=O)c3ccccc3C2=O)C(=O)N1 (stereo not drawn) [thalidomide]	82	18	77	> 32	> 100	> 100	> 100	not at the dose of 0.5 μg/eye	significantly reduced vascular leakage	not at 0.5 μg/eye	showed an inhibitory effect

— patent US20100247659A1, “PHENYLPHTHALIMIDE ANALOGS FOR TREATING DIABETIC MACULAR EDEMA” (Charlesson, LLC, priority 2007, published 2010)
